Each structure is given as a SMILES string. “Also recorded” adds a separate entry of the source.

Assay type in all cases: in vivo, C57BL6 mice
The subject of one test is gut microbiota. The experiment in a line: Gut microbiota diversity (Shannon alpha diversity) from shotgun metagenomic sequencing of stool of treated mice. Particulars: stools at end. As for the experimental part: (§1) In the methods described for each of these examples, C57BL6 mice at 6 weeks of age were allowed to be appropriately acclimated before the start of the change in diet and treatments. For Experiment 1 (Example 1), thirty-two mice were evenly distributed into four groups with Group 1 as the control diet, no treatment, Group 2 as the high-fat diet, treat with DMSO control, Group 3 as the high-fat diet, treated with 12.5 μg of Ascr #7/mouse per injection (0.5 mg/kg dose assuming a 25 gm mouse), Group 4 as the high-fat diet, treated with 4.1 μg Ascr #9/mouse per injection (0.164 mg/kg dose assuming a 25 gm mouse). […]
(§2) DNA was extracted using the Qiagen MagAttract PowerSoil DNA KF kit (Formerly MO Bio PowerSoil DNA Kit) using a KingFisher robot. DNA quality was evaluated visually via gel electrophoresis and quantified using a Qubit 3.0 fluorometer (Thermo-Fischer, Waltham, Mass., USA). […]
(§3) Paired-end sequencing (150 bp×2) was done on a NextSeq 500 in medium-output mode. Shotgun metagenomic sequence reads were processed with the Sunbeam pipeline. […] Processing took part in four steps: adapter removal, read trimming, low-complexity reads removal, and host-sequence read removal. […] Low-complexity sequences were detected with Komplexity v0.3.6.
(§4) The remaining reads were taxonomically classified using Kraken2 with the MiniKraken2_v1 database. […]

For test [1], the system named is Bifidobacterium (e.g., Bifidobacterium catenulatum). As to the kind of experiment: Differential abundance of Bifidobacterium in gut microbiota of treated mice (stool sequencing). Particulars: stools at end. How it is done:
as §1, §2, §3, §4

For a further test, the system named is Akkermansia. The experiment in a line: Differential abundance of Akkermansia in gut microbiota of treated mice (stool sequencing). Particulars: Experiment 1, mice, 31 days of treatment, stools at end, vs control (FIG. 9). How it is done: as §1, §2, §3, §4
For the next test, the system named is Adlercreutzia. The experiment in a line: Differential abundance of Adlercreutzia in gut microbiota of treated mice (stool sequencing). Conditions: Experiment 1, mice, 31 days of treatment, stools at end, vs control (FIG. 9). As for the experimental part: as §1, §2, §3, §4
The nature of test [2]: Stool consistency (Bristol Stool Chart) of treated mice. Conditions: Experiment 3, mice, 12.5 μg/mouse IP, stools at end, vs untreated control (FIG. 10). How it is done: For Experiment 3, ten mice were assigned Group 7 to be treated with DMSO control. Eight mice were assigned to Group 8 to be treated with 12.5 μg of Ascr #7/mouse per injection (0.5 mg/kg dose assuming a 25 gm mouse). Nine mice were assigned to Group 9 to be treated with 12.5 μg of Compound 1/mouse per injection (0.5 mg/kg dose assuming a 25 gm mouse). To make the master stocks, Ascr #7 and Compound 1 were dissolved in DMSO to make 10 μg/uL of the Ascr #7 and Compound 1 master stocks and 12.5 μL of each master stocks were aliquoted into glass vials for each day of injection. Mice from each group were IP injected three times a week for 3 weeks and one day for a total of 10 injections. On each day of IP injection, 987.5 μL of ultra-pure water is added to each master stocks to make 0.125 μg/uL of Ascr #7 and Compound 1 working stocks and 100 μL of each was IP injected into mice. As will be described in greater detail below, Compound 1 refers to the ascaroside derisive:
The methods and compositions described herein may also be used to treat constipation. Constipation, which accompanies various diseases, may be a symptom of underlying defects in either transit of fecal mass through the gut or defecation, a commonly diagnosed functional gastrointestinal disorder. […]

Take `C[C@H](CC/C=C/C(=O)O)O[C@@H]1O[C@@H](C)[C@H](O)C[C@H]1O` [Ascr #7]: the “alpha diversity of the gut microbiota (Shannon's diversity index)” value with gut microbiota (Experiment 3, mice, 12.5 μg/mouse IP three times a week, 10 injections, vs DMSO control (FIG. 3)) is given as “increased alpha diversity; also recorded: substantial increase in diversity”. The “amount of Bifidobacter in the gut microbiota” value in test [1] (Experiment 1, mice, 31 days of treatment, vs control (FIG. 9)) is on record as “increases”. Besides, in test [1] (Experiment 3, mice, vs control (FIG. 8)), the “amount of Bifidobacterium catenulatum in the gut microbiota” value is given as “specific increase; also recorded: increased significantly”. Also, in the test on Akkermansia, the “amount of Akkermansia in the gut microbiota” value is given as “increases; also recorded: increase in the overall amount”. The “amount of Adlercreutzia in the gut microbiota” value with Adlercreutzia was “increases; also recorded: increase in the overall amount”. In addition, in test [2], the “proportion of feces with Type 4 stools (smooth and soft, Bristol Stool Chart)” value is “significantly higher proportion of feces with Type 4 stools”.

For the molecule `C[C@H](CCC(=O)O)O[C@@H]1O[C@@H](C)[C@H](O)C[C@H]1O` [Ascr #9], the “alpha diversity of the gut microbiota (Shannon's diversity index)” value in the test with gut microbiota (Experiment 1, high-fat diet mice, 4.1 μg/mouse IP three times a week for 31 days, vs control (FIG. 4)) was “increase in alpha diversity; also recorded: increased”. Moreover, in the test with Akkermansia, the “amount of Akkermansia in the gut microbiota” value is recorded as “increase in the overall amount”. Moreover, the “amount of Adlercreutzia in the gut microbiota” value with Adlercreutzia was “increase in the overall amount”.

Consider `C[C@H](CC/C=C/C(=O)OC(C)(C)C)O[C@@H]1O[C@@H](C)[C@H](O)C[C@H]1O` [Compound 1, tert-butyl (2E,6R)-6-{[(2R,3R,5R,6S)-3,5-dihydroxy-6-methyloxan-2-yl]oxy}hept-2-enoate], for which, in test [2], the “proportion of feces with Type 4 stools (smooth and soft, Bristol Stool Chart)” value is “significantly higher proportion of feces with Type 4 stools”.

The record behind these values is patent publication US20220409650A1, “COMPOSITIONS AND METHODS FOR ASCAROSIDE MODIFICATION OF MAMMALIAN MICROBIOTA” (Holoclara, Inc., priority 2019, published 2022).
